In patent US20100173888A1 (Pfizer Inc, priority 2008, published 2010):
Counter-ions that a name gives are not always drawn.

The compounds below were run against human recombinant H-PGDS (Homo sapiens, UniProt O60760) (assay: Fluorescence intensity h-PGDS TBA enzyme assay (PGH2 depletion, MDA/TBA fluorescence)). Details: 1:175,000 human recombinant H-PGDS, 42 second reaction, 3-fold serial dilutions, highest concentration typically 1 μM.
Type: biochemical
How it was run: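 Recombinant human H-PGDS preincubated with inhibitor 10 min at room temperature in pH 8.0 Tris, MgCl2, IgG, 2.5 mM glutathione, 0.5% DMSO. Reaction with 5.0 μM PGH2 stopped at 42 s with FeCl2/citric acid; MDA–TBA fluorescence (ex 530/em 565 nm) read after 70° C. IC50 by 4-parameter fit, 11 concentrations.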

Chain of human recombinant H-PGDS (O60760 whole entry): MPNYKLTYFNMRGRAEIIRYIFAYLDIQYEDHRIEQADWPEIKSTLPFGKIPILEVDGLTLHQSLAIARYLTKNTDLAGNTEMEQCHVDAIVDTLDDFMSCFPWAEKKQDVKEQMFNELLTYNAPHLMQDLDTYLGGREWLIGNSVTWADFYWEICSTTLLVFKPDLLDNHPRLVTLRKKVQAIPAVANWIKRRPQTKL

Compound | IC50
O=C(N[C@@H]1CC[C@@H](O)C1)c1ccc(-c2cccc(F)c2)nc1 [Example 130A, 6-(3-fluorophenyl)-N-[(1R,3R)-3-hydroxycyclopentyl]nicotinamide] | 52.3 nM
N[C@H]1CC[C@H](NC(=O)c2ccc(-c3cccc(F)c3)nc2)CC1 [Example 142B, N-(trans-4-Aminocyclohexyl)-6-(3-fluorophenyl)nicotinamide] | 16.4 nM
CC(C)(O)C(=O)N[C@H]1CC[C@H](NC(=O)c2ccc(-c3cccc(F)c3)nc2)CC1 [Example 143, 6-(3-Fluorophenyl)-N-{trans-4-[(2-hydroxy-2-methylpropanoyl)amino]cyclohexyl}nicotinamide] | 7.2 nM
C[C@H](O)C(=O)N[C@H]1CC[C@H](NC(=O)c2ccc(-c3cccc(F)c3)nc2)CC1 [Example 144, 6-(3-Fluorophenyl)-N-(trans-4-{[(2S)-2-hydroxypropanoyl]amino}cyclohexyl)nicotinamide] | 7.5 nM
CN(C)CC(=O)N[C@H]1CC[C@H](NC(=O)c2ccc(-c3cccc(F)c3)nc2)CC1 [Example 145, N-{trans-4-[(N,N-Dimethylglycyl)amino]cyclohexyl}-6-(3-fluorophenyl)nicotinamide] | 11.6 nM
NCC(=O)N[C@H]1CC[C@H](NC(=O)c2ccc(-c3cccc(F)c3)nc2)CC1 [Example 146, 6-(3-Fluorophenyl)-N-[trans-4-(glycylamino)cyclohexyl]nicotinamide] | 21 nM
CC(=O)NC(C)[C@H]1CC[C@H](NC(=O)c2ccc(-c3cccc(F)c3)nc2)CC1 (stereo partly drawn) [Example 147, N-[trans-4-(1-Acetamidoethyl]cyclohexyl]-6-(3-fluorophenyl)nicotinamide] | 5.7 nM
CS(=O)(=O)NC[C@H]1CC[C@H](NC(=O)c2ccc(-c3cccc(F)c3)nc2)CC1 [Example 150, 6-(3-Fluorophenyl)-N-[trans 4(methanesulfonylaminomethyl)cyclohexyl]nicotinamide] | 8.9 nM
CC(C)(O)C[C@H]1CC[C@H](NC(=O)c2ccc(-c3cccc(F)c3)nc2)CC1 [Example 152, 6-(3-Fluorophenyl)-N-[4-(trans 2-hydroxy-2-methylpropyl)cyclohexyl]nicotinamide] | 2.2 nM
O=C(NC1CCC(O)(CN2CCCCC2)CC1)c1ccc(-c2cccc(F)c2)nc1 (stereo not drawn) [Example 153, 6-(3-Fluorophenyl)-N-(4-hydroxy-piperidin-1-ylmethylcyclohexyl)nicotinamide] | 13.2 nM
NCCC(O)C1CCC(NC(=O)c2ccc(-c3cccc(F)c3)nc2)CC1 (stereo not drawn) [Example 154, N-[4-(3-Amino-1-hydroxypropyl)cyclohexyl]6-(3-fluorophenyl)nicotinamide hydrochloride] | 40.3 nM
N[C@H]1CC[C@@H](NC(=O)c2ccc(-c3cccc(F)c3)nc2)CC1 [Example 155, N-(cis-4-Aminocyclohexyl)-6-(3-fluorophenyl)nicotinamide] | 97.8 nM
O=C(N[C@H]1CC[C@@H](C(=O)N2CCN(CCO)CC2)C1)c1ccc(-c2cccc(F)c2)nc1 [Example 156, 6-(3-fluorophenyl)-N-[(1S,3R)-3-{[4-(2-hydroxyethyl)piperazin-1-yl]carbonyl}cyclopentyl]nicotinamide] | 11.5 nM
CCN(C)C(=O)[C@@H]1CC[C@H](NC(=O)c2ccc(-c3cccc(F)c3)nc2)C1 [Example 157, N-{(1S,3R)-3-[ethyl(methyl)carbamoyl]cyclopentyl}-6-(3-fluorophenyl)nicotinamide] | 5.8 nM
O=C(N[C@H]1CC[C@@H](C(=O)N2CC[C@H](F)C2)C1)c1ccc(-c2cccc(F)c2)nc1 [Example 159, 6-(3-fluorophenyl)-N-[(1S,3R)-3-{[(3S)-3-fluoropyrrolidin-1-yl]carbonyl}cyclopentyl]nicotinamide] | 4.9 nM
O=C(N[C@H]1CC[C@@H](C(=O)NC2CC2)C1)c1ccc(-c2cccc(F)c2)nc1 [Example 160, N-[(1S,3R)-3-(cyclopropylcarbamoyl)cyclopentyl]-6-(3-fluorophenyl)nicotinamide] | 11.2 nM
O=C(N[C@H]1CC[C@@H](C(=O)N2CC[C@@H](F)C2)C1)c1ccc(-c2cccc(F)c2)nc1 [Example 161, 6-(3-fluorophenyl)-N-[(1S,3R)-3-{[(3R)-3-fluoropyrrolidin-1-yl]carbonyl}cyclopentyl]nicotinamide] | 4.1 nM
CC(C)(O)[C@@H]1CC[C@H](NC(=O)c2ccc(-c3cccc(F)c3)nc2)C1 [Example 162, 6-(3-fluorophenyl)-N-[(1S,3R)-3-(1-hydroxy-1-methylethyl)cyclopentyl]nicotinamide] | 22.7 nM
CN(C)C(=O)[C@@H]1CC[C@H](NC(=O)c2ccc(-c3cccc(F)c3)nc2)C1 [Example 163, N-[(1S,3R)-3-(Dimethylcarbamoyl)cyclopentyl]-6-(3-fluorophenyl)nicotinamide] | 6.1 nM
C[C@H](CO)NC(=O)[C@@H]1CC[C@H](NC(=O)c2ccc(-c3cccc(F)c3)nc2)C1 [Example 164, 6-(3-Fluorophenyl)-N-{(1S,3R)-3-[(2-hydroxy-1-methylethyl)carbamoyl]cyclopentyl}nicotinamide] | 16.1 nM

Compound | IC50
CN(C)C(=O)[C@H]1CC[C@@H](NC(=O)c2ccc(-c3cccc(F)c3)nc2)C1 [Example 165, N-[(1R,3S)-3-Dimethylcarbamoyl-cyclopentyl]-6-(3-fluorophenyl)nicotinamide] | 16.9 nM
CC(C)(O)[C@H]1CC[C@@H](NC(=O)c2ccc(-c3cccc(F)c3)nc2)C1 [Example 166, 6-(3-Fluorophenyl)-N-[(1R,3S)-3-(1-hydroxy-1-methylethyl)cyclopentyl]nicotinamide] | 35.5 nM
CN(C)CCNC(=O)[C@@H]1CC[C@H](NC(=O)c2ccc(-c3cccc(F)c3)nc2)C1 [Example 167, N-[(1S,3R)-3-{[2-(Dimethylamino)ethyl]carbamoyl}cyclopentyl]-6-(3-fluorophenyl)nicotinamide] | 28.5 nM
O=C(N[C@H]1CC[C@@H](C(=O)N2CCC(CCO)CC2)C1)c1ccc(-c2cccc(F)c2)nc1 [Example 168, 6-(3-Fluorophenyl)-N-[(1S,3R)-3-{(4-(2-hydroxyethyl)piperidin-1-yl]carbonyl}cyclopentyl]nicotinamide] | 4.4 nM
COCCNC(=O)[C@@H]1CC[C@H](NC(=O)c2ccc(-c3cccc(F)c3)nc2)C1 [Example 169, 6-(3-Fluorophenyl)-N-{(1S,3R)-3-[(2-methoxyethyl)carbamoyl]cyclopentyl}nicotinamide] | 15.1 nM
O=C(N[C@H]1CC[C@@H](C(=O)N2CCOCC2)C1)c1ccc(-c2cccc(F)c2)nc1 [Example 170, 6-(3-Fluorophenyl)-N-[(1S,3R)-3-(morpholin-4-ylcarbonyl)cyclopentyl]nicotinamide] | 4.3 nM
CC(C)(O)CNC(=O)[C@@H]1CC[C@H](NC(=O)c2ccc(-c3cccc(F)c3)nc2)C1 [Example 171, 6-(3-Fluorophenyl)-N-{(1S,3R)-3-[(2-hydroxy-2-methylpropyl)carbamoyl]cyclopentyl}nicotinamide] | 6.3 nM
CC(C)(CCO)NC(=O)[C@@H]1CC[C@H](NC(=O)c2ccc(-c3cccc(F)c3)nc2)C1 [Example 172, 6-(3-Fluorophenyl)-N-{(1S,3R)-3-[(3-hydroxy-1,1-dimethylpropyl)carbamoyl]cyclopentyl}nicotinamide] | 6.4 nM
CN1CCN(C(=O)[C@@H]2CC[C@H](NC(=O)c3ccc(-c4cccc(F)c4)nc3)C2)CC1=O [Example 173, 6-(3-Fluorophenyl)-N-{(1S,3R)-3-[(4-methyl-3-oxopiperazin-1-yl)carbonyl]cyclopentyl}nicotinamide] | 21.6 nM
CN1CCC(NC(=O)[C@@H]2CC[C@H](NC(=O)c3ccc(-c4cccc(F)c4)nc3)C2)CC1 [Example 174, 6-(3-Fluorophenyl)-N-{(1S,3R)-3-[(1-methylpiperidin-4-yl)carbamoyl]cyclopentyl}nicotinamide] | 1860 nM
NC(=O)[C@@H]1CC[C@H](NC(=O)c2ccc(-c3cccc(F)c3)nc2)C1 [Example 175, N-[(1S,3R)-3-Carbamoylcyclopentyl]-6-(3-fluorophenyl)nicotinamide] | 20.2 nM
O=C(N[C@H]1CC[C@@H](C(=O)N2CCNCC2)C1)c1ccc(-c2cccc(F)c2)nc1 [Example 176, 6-(3-Fluorophenyl)-N-[(1S,3R)-3-(piperazin-1-ylcarbonyl)cyclopentyl]nicotinamide] | 9 nM
NC1CCN(C(=O)[C@@H]2CC[C@H](NC(=O)c3ccc(-c4cccc(F)c4)nc3)C2)CC1 [Example 177, N-{(1S,3R)-3-[(4-Aminopiperidin-1-yl)carbonyl]cyclopentyl}-6-(3-fluorophenyl)nicotinamide] | 21.4 nM
O=C(N[C@@H]1CC[C@H](C(=O)N2CCOCC2)C1)c1ccc(-c2cccc(F)c2)nc1 [Example 179, 6-(3-Fluorophenyl)-N-[(1R,3S)-3-(morpholin-4-ylcarbonyl)cyclopentyl]nicotinamide] | 5.6 nM
O=C(N[C@@H]1CC[C@H](C(=O)N2CC[C@@H](F)C2)C1)c1ccc(-c2cccc(F)c2)nc1 [Example 180, 6-(3-Fluorophenyl)-N-[(1R,3S)-3-{[(3R)-3-fluoropyrrolidin-1-yl]carbonyl}cyclopentyl]nicotinamide] | 8.9 nM
O=C(N[C@@H]1CC[C@H](C(=O)N2CC[C@H](F)C2)C1)c1ccc(-c2cccc(F)c2)nc1 [Example 181, 6-(3-Fluorophenyl)-N-[(1R,3S)-3-{[(3S)-3-fluoropyrrolidin-1-yl]carbonyl}cyclopentyl]nicotinamide] | 5.8 nM
CN1CCN(C(=O)[C@H]2CC[C@@H](NC(=O)c3ccc(-c4cccc(F)c4)nc3)C2)CC1=O [Example 182, 6-(3-Fluorophenyl)-N-[(1R,3S)-3-[(4-methyl-3-oxopiperazin-1-yl)carbonyl]cyclopentyl}nicotinamide] | 17.8 nM
CN(C)CCNC(=O)[C@H]1CC[C@@H](NC(=O)c2ccc(-c3cccc(F)c3)nc2)C1 [Example 183] | 75.2 nM
O=C(N[C@@H]1CC[C@H](C(=O)N2CCN(CCO)CC2)C1)c1ccc(-c2cccc(F)c2)nc1 [Example 184] | 20.3 nM
